Article PMC8786932, “Bicyclic azetidines target acute and chronic stages of Toxoplasma gondii by inhibiting parasite phenylalanyl t-RNA synthetase” (Nature Communications, 2022)
Several values for one entry are separate records, joined by “and”; a condition that tells them apart may be missing. Equal values may be shown once. Read-outs that look alike come from different tables or passages of the source.

Experiments:
[1] = tested on: ex vivo T. gondii ME49-FLuc bradyzoites from tissue cysts of chronically infected mice; assay: Ex vivo bradyzoite treatment assay (plaque assay); type: cell-based, Toxoplasma gondii; settings: for growth of ex vivo bradyzoites at EC50: constant treatment, vs DMSO
Experimental: The brains from CBA/J mice chronically infected with the ME49-FLuc strain were harvested, homogenized, and tissue cysts isolated on Percoll gradients, as described previously[9],[27]. Following isolation, purified tissue cysts were treated with acid-pepsin solution ([…] sodium chloride (NaCl), 60 mM hydrochloric acid (HCl) and freshly made pepsin (0.1 mg/mL in 1xPBS) for 10 min at 37 °C. Following acid-pepsin treatment and addition of neutralization buffer (94 mM sodium carbonate (Na2CO3), liberated bradyzoites were equally distributed into 6-well plates with 5 mL culture media containing compounds or vehicle control (0.1–0.2% DMSO final concentration). Plates were incubated undisturbed for 12–14 days followed by fixation in 100% ethanol (ETOH) for 5 min at RT, rinsing with tap water, staining in 0.1% crystal violet solution for 10 min at RT, rinsing in water and air drying. Plaques were quantified on a Zeiss AxioObserver microscope equipped with a ×2.5 objective (Department of Molecular Microbiology Imaging Facility at the Washington University School of Medicine).

[2] = tested on: in vitro induced T. gondii ME49-FLuc bradyzoite cysts; assay: In vitro bradyzoite growth assay, cyst size (3 d induction + 2 d treatment); type: cell-based, Toxoplasma gondii; settings: for Cyst size (individual cysts): area within cyst wall, measured in microns; for effect on cyst size: at the EC90 or 3xEC90, 2 days after 3 days induction
Experimental: To monitor the effects of compounds on early bradyzoite differentiation, ME49-Fluc tachyzoites were inoculated onto HFF monolayers grown on coverslips in 24-well plates and allowed infect during a 2 h incubation in 3% DMEM (DMEM containing glutamine (10 mM), gentamycin (10 μg/mL,) and 3% FBS) at 37°C, 5% CO2. The medium was replaced with RPMI 1640 pH 8.2 and cells were cultured in ambient CO2 at 37°C for 3 days to induce bradyzoites. […] Samples were fixed and stained using biotinylated Dolichos biflorus lectin (DBL) (Vector Laboratories (#B-1035-5) […]) followed by Alexa Fluor 488 streptavidin (Thermo Fischer (#S11223) 1:1,000 dilution) and mouse mAb 8.25.8 anti-BAG1 (from Dr. Louis Wiess) (1:1,100)[56] followed by goat anti-mouse IgG conjugated to Alexa Fluor 568 (Thermo Fischer (#A-1104) 1:1,000). Samples were analyzed using a Zeiss AxioObserver Z1 equipped with Colibri LED illumination using a 40x EC Plan-Neofluar objective (N.A. 1.3) and images were captured using an ORCA-ER digital camera operated using ZEN v3.3 (Carl Zeiss). Cyst size was determined by measuring the area defined by the perimeter of the cyst wall as measured in microns.

[3] = tested on: in vitro derived T. gondii ME49-FLuc bradyzoites; assay: Plaque assay of bradyzoites induced in vitro for 14 days; type: cell-based, Toxoplasma gondii; settings: Fig 5F, replicates
Experimental: To monitor the effects of compounds on more mature in vitro derived bradyzoites, ME49-Fluc tachyzoites were inoculated onto HFF monolayers grown in T25[2] flasks and bradyzoites were induced for 12 days in RPMI 1640 pH 8.2 at ambient CO2 and 37°C. Cultures were then treated with compounds at EC90 or 3XEC90 for another 2 days. At the end of 14 days, monolayers were scraped and passed through a 23 g needle to liberate cysts, followed by centrifugation (400 × g, 10 min, 4 °C). Pellets were resuspended with Pearce^TM streptavidin magnetic beads (Thermo Fisher) pre-coupled with biotinylated DBL (Vector laboratories) and incubated for 1 h at 4 °C. Beads were collected and washed twice using a magnetic stand, followed by treatment with 0.25 mg/ml trypsin for 10 min to liberate bradyzoites. Released bradyzoites were collected from the supernatant and counted using a hemocytometer. Bradyzoites were inoculated onto 6-well plates confluent with HFF monolayers and cultured for 14 days, followed by ethanol fixation and staining with 0.01% crystal violet. Plaques or foci of infection were imaged using an Axiovert 100 microscope equipped with an AxioCam color camera and analyzed by ImageJ.

[4] = in vitro; type: cell-based, human; settings: human, top 20 μM
Experimental: (§1) For the toxicity screen, compounds were tested in 96-well plates using all the wells as no edge affect was observed. Compounds were diluted to 40 μM (2x concentration in 10% DMEM, 0.4% DMSO) before step-wise, 3-fold dilution in 10% DMEM to create 10-dose series (20 μM to 0.001 μM). Host cells were plated in black, μ-Clear 96-well plates (Greiner Bio-One). We compared several lineages including HepG2 (human hepatocellular carcinoma (ATCC-HB-8065)), THP-1 (human monocytic tumor line), SH-SY5Y (human neuroblastoma (ATCC CRL-2266)), A549 (human lung carcinoma (ATCC CRM-CCL-185)) and Caco-2 (human intestinal adenocarcinoma (ATCC HTB-37)) and HFF (primary human foreskin fibroblast) obtained from the laboratory of John Boothroyd at Stanford University. Cells were maintained in culture media according to the formulations recommended by ATCC. Cells were plated at a density (ranging from of 5 × 10^3 to 2 × 10^4 cells/well (100 μL vol)) resulting in sub-confluent monolayers to allow expansion during the 2 day growth assay. THP-1 cells were treated with 10 ng/ml phorbol 12-myristate 13-acetate (PMA) for 24 h to differentiate into macrophages before compound addition. For all other cells, compounds were added at 6 h post seeding to host cells containing plates (200 μL final volume, 0.2% DMSO) and incubated in culture medium at 37 °C supplemented with 5% CO2. At 44 h post compound addition (50 h total growth time), culture media was aspirated and replaced with Live Imaging solution (ThermoFisher) supplemented with 10 μg/mL Hoeschst 33342 (Sigma) for 20 min at 37 °C. […] Alternatively, plates fixed with 4% formaldehyde for 10 min and stained with 10 μg/mL Hoeschst 33342 (Sigma) for 20 min and imaged using a Cytation 3 multi-mode imager (DAPI, 10x objective, 4 images/well) and nuclei quantified using the Gen5 imager software (v3.08). Assays were repeated with two technical replicates within each of two independent biological replicates.
(§2) All statistical analyses were conducted using Prism 9 (GraphPad Software, Inc.). Dose–response inhibition curves for parasite and host cell toxicity screens (EC50 values) were generated using (Log(inhibitor) vs. normalized response—Variable slope) function. […] For multiple comparisons, two-way ANOVA analysis function using either Sidák’s multiple comparisons test or Dunnett’s multiple comparisons test was applied as indicated.

[5] = in vitro; type: cell-based; settings: human, Caco-2; for EC50: nuclei count, 44 h, top 20 μM; for selectivity ratio: EC50 host cell/EC50 T. gondii, read-out: Caco-2 fold selectivity
Experimental: as §1, §2

[6] = tested on: SH-SY5Y (human neuroblastoma); assay: in vitro; type: cell-based; settings: EC50 host cell/EC50 T. gondii
Experimental: as §1, §2

[7] = tested on: THP-1 (human monocytic tumor line); assay: in vitro; type: cell-based; settings: EC50 host cell/EC50 T. gondii
Experimental: as §1, §2

[8] = Constant treatment, Fig 5H top 4, replicates
[9] = Washout, Fig 5H top 4, replicates
[10] = PMA differentiated, read-out: THP-1 EC50
[11] = nuclei count, 44 h, read-out: A549 EC50
[12] = nuclei count, 44 h, read-out: HFF EC50
[13] = nuclei count, 44 h, read-out: SH-SY5Y EC50
[14] = nuclei count, 44 h after compound addition, read-out: HEPG2 EC50

COc1ccc(NC(=O)N2CCCCN3[C@H](CN(C)C)[C@H](c4ccc(C#Cc5ccccc5)cc4)[C@@H]3C2)cc1 [BRD7929]
growth inhibition of ex vivo bradyzoites ([1]; 3×EC90, constant treatment): 99% | effect after washout ([1]; 3×EC90, short-term (4 h) treatment then washout): sustained following washout | Ex vivo bradyzoite plaques, normalised to DMSO = 100 [1, 8]: 1.0 and 0.2 and 1.9 | growth of ex vivo bradyzoites at EC50 ([1]; EC50 concentration): only partially reduced growth | growth inhibition of ex vivo bradyzoites ([1]; EC90, constant treatment): 93% | Ex vivo bradyzoite plaques, normalised to DMSO = 100 ([1]; Washout, EC50 concentration, Fig 5I): 66.67 and 75.15 and 100 | Ex vivo bradyzoite plaques, normalised to DMSO = 100 ([1]; Washout, EC90 concentration, Fig 5I): 83.91 | Ex vivo bradyzoite plaques, normalised to DMSO = 100 [1, 9]: 2.174 and 0.37 and 0.00000000 | Cyst size (individual cysts) ([2]; 3XEC90, 2 days): 70.79 and 76.24 and 90.26 and 38.16 and 85.34 and 130.5 and 42.83 and 30.86 and 19.37 and 49.32 and 117.9 and 50.48 and 21.2 and 120.5 and 75.85 and 64.97 and 70.16 and 108.7 and 69.23 and 113 | Cyst size (individual cysts) ([2]; EC90, 2 days): 112.8 and 142 and 65 and 40.33 and 94.48 and 106.3 and 167.8 and 104.7 and 129.7 and 105.6 and 65.07 and 56.59 and 80.88 and 43.39 and 143.9 and 81.69 and 71.88 and 171.2 and 68.84 and 66.51 | effect on cyst size [2]: significantly diminished cyst size | Plaque numbers ([3]; 3xEC90): 0 | Plaque numbers ([3]; EC90): 0 | EC50 [4, 10]: 0.672 µM | EC50 [4, 11]: 5.37 µM | EC50 [4, 12]: 7.87 µM | EC50 [4, 13]: 0.731 µM | EC50 [4, 14]: 3.06 µM | EC50 [5]: 7 µM

COc1ccc(NC(=O)N2CCCCN3[C@H](CN(C)S(C)(=O)=O)[C@H](c4ccc(C#Cc5ccccc5)cc4)[C@@H]3C2)cc1 [BRD8494]
Ex vivo bradyzoite plaques, normalised to DMSO = 100 [1, 8]: 0.5 and 0.2 and 1.9 | Ex vivo bradyzoite plaques, normalised to DMSO = 100 ([1]; Constant, EC50 concentration, Fig 5J): 100 and 95.62 and 97.45 | growth of ex vivo bradyzoites at EC50 ([1]; EC50 concentration): did not inhibit the growth | growth of ex vivo bradyzoites at higher concentrations ([1]; EC90 and 3×EC90, constant treatment): nearly eliminated growth | Ex vivo bradyzoite plaques, normalised to DMSO = 100 ([1]; Washout, 3xEC90 concentration, Fig 5J): 97.62 and 100 | Ex vivo bradyzoite plaques, normalised to DMSO = 100 ([1]; Washout, EC50 concentration, Fig 5J): 100 and 96.6 and 91.18 | Ex vivo bradyzoite plaques, normalised to DMSO = 100 ([1]; Washout, EC90 concentration, Fig 5J): 100 | Ex vivo bradyzoite plaques, normalised to DMSO = 100 [1, 9]: 1.087 and 0.74 and 4.5 | Cyst size (individual cysts) ([2]; 3XEC90, 2 days): 46.64 and 167.1 and 52.11 and 128.7 and 180.9 and 64.9 and 103 and 36.82 and 65.28 and 41.9 and 105.7 and 87.22 and 144.1 and 114.5 and 214.1 and 103.8 and 343.4 and 159.3 and 37.35 and 133.8 | Cyst size (individual cysts) ([2]; EC90, 2 days): 112 and 360 and 182.2 and 110.4 and 32.16 and 37.14 and 75.73 and 23.46 and 145.9 and 108.1 and 145.1 and 279 and 170.3 and 246.7 and 83.16 and 29.6 and 216.4 and 92.48 and 64.36 and 16.16 | effect on cyst size [2]: significantly diminished cyst size | Plaque numbers ([3]; 3xEC90): 0 | Plaque numbers ([3]; EC90): 0 | SH-SY5Y fold selectivity [6]: 51.0 fold | THP-1 fold selectivity [7]: 13.2 fold | EC50 [4, 10]: 0.461 µM | EC50 [4, 11]: > 20 µM | EC50 [4, 12]: > 20 µM | EC50 [4, 13]: 1.79 µM | EC50 [4, 14]: > 20 µM | selectivity ratio [5]: 571 | EC50 [5]: > 20 µM

CN(C[C@@H]1[C@H](c2ccc(C#Cc3ccccc3)cc2)[C@@H]2CN(C(=O)Nc3ccc(OC4CC4)cc3)CCCCN12)S(C)(=O)=O [BRD2987]
Ex vivo bradyzoite plaques, normalised to DMSO = 100 [1, 8]: 0.5 and 0.7 and 3.9 | Ex vivo bradyzoite plaques, normalised to DMSO = 100 [1, 9]: 6.522 and 15.2 and 18.2 | Cyst size (individual cysts) ([2]; 3XEC90, 2 days): 210 and 276.2 and 29.32 and 152.5 and 78.3 and 34.32 and 25.15 and 91.33 and 112.7 and 36.9 and 64.42 and 29.43 and 70.1 and 40.53 and 119.9 and 26.89 and 53.28 and 150.6 and 151.3 and 93.74 | Cyst size (individual cysts) ([2]; EC90, 2 days): 236.6 and 67.46 and 53.54 and 238 and 123.3 and 64.95 and 39.29 and 138.8 and 102.4 and 187.5 and 285.6 and 103.1 and 283.5 and 243.7 and 89.72 and 170.5 and 68.94 and 144.9 and 116.2 and 59.27 | effect on cyst size [2]: significantly diminished cyst size | Plaque numbers ([3]; 3xEC90): 0 and 5 | Plaque numbers ([3]; EC90): 0 | SH-SY5Y fold selectivity [6]: 123.9 fold | THP-1 fold selectivity [7]: 13.4 fold | EC50 [4, 10]: 0.255 µM | EC50 [4, 11]: 2.17 µM | EC50 [4, 12]: > 20 µM | EC50 [4, 13]: 2.35 µM | EC50 [4, 14]: > 20 µM | EC50 [5]: > 20 µM

COc1ccc(NC(=O)N2CCCCN3[C@H](CO)[C@H](c4ccc(C#Cc5ccccc5)cc4)[C@@H]3C2)cc1 [BRD3444]
Ex vivo bradyzoite plaques, normalised to DMSO = 100 [1, 8]: 0.5 and 0.2 and 1.9 | Ex vivo bradyzoite plaques, normalised to DMSO = 100 [1, 9]: 1.087 and 0.00000000 and 9.1 | Cyst size (individual cysts) ([2]; 3XEC90, 2 days): 55.84 and 108.4 and 18.78 and 55.57 and 227.1 and 49.46 and 37.83 and 273.6 and 101.6 and 179.3 and 249.8 and 34.55 and 88.71 and 51.38 and 34.99 and 140.8 and 42.55 and 30.36 and 52.48 and 90.45 | Cyst size (individual cysts) ([2]; EC90, 2 days): 20.97 and 95.37 and 274.5 and 251.3 and 190.7 and 326.2 and 209.9 and 125.4 and 65.68 and 59.54 and 81.3 and 20.04 and 43.73 and 427 and 253.3 and 87.22 and 217.7 and 114.5 and 214.1 and 137.7 | effect on cyst size [2]: significantly diminished cyst size | Plaque numbers ([3]; 3xEC90): 0 | Plaque numbers ([3]; EC90): 5 and 0 | SH-SY5Y fold selectivity [6]: 91.9 fold | THP-1 fold selectivity [7]: 88.9 fold | EC50 [4, 10]: 2.58 µM | EC50 [4, 11]: > 20 µM | EC50 [4, 12]: > 20 µM | EC50 [4, 13]: 2.67 µM | EC50 [4, 14]: 11.3 µM | selectivity ratio [5]: 270 | EC50 [5]: 7.82 µM
